In patent US20090170897A1, “Method of Treating Neuropathic Pain” (Pfizer, Inc., priority 2004, published 2009):

Columns and labels:
[1] = compound level in rat CSF after oral administration; format: in vivo
Procedure: Moreover the antagonist produced a long lasting anti-hyperalgesic effect in the CITH rat model. N-cyclopropyl-N-[2-methyl-1-(pyridine-3-carbonyl)-1,2,3,4-tetrahydro-quinolin-4-yl]-acetamide was dosed in the rat blood and CSF at various time points after oral administration.

CRTH2 receptor = molecular target: T1, CRTH2 receptor (Rattus norvegicus, UniProt Q6XKD3); assay: IC50 at rat CRTH2 receptor (rIC50)
T1 sequence (Q6XKD3 1-403): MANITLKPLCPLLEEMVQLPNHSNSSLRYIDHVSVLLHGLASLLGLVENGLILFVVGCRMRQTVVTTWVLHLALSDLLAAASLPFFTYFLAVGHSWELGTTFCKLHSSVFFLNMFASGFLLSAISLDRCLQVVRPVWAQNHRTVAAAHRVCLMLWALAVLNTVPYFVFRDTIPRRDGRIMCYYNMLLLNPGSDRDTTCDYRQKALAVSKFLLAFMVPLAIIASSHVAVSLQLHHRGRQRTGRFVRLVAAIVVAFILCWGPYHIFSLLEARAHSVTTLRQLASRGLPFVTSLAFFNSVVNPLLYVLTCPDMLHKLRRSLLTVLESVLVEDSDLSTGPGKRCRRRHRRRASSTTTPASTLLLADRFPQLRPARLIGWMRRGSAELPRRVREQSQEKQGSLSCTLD

[2] = tested on: Chronic Constriction Injury (CCI) rat model of neuropathic pain; assay: CCI-induced static allodynia (von Frey hairs, PWT); format: in vivo
Procedure: (§1) Male Sprague Dawley rats weighing 150-400 g obtained from Charles River (Manston, Kent, UK.) were housed in groups of 3. All animals were kept under a 12 h light/dark cycle (lights on at 07 h 00 min) with food and water ad libitum. All experiments were carried out by an observer blind to the treatments and in accordance with the Home Office Animals (Scientific Procedures) Act 1986.
(§2) The CCI of sciatic nerve was performed as previously described by Bennett and Xie (Bennett G J, Xie Y K. A peripheral mononeuropathy in rat that produces disorders of pain sensation like those seen in man. Pain:33:87-107, 1988). Animals were anaesthetised with a 2% isofluorane/O2 mixture. The right hind thigh was shaved and swabbed with 1% iodine. Animals were then transferred to a homeothermic blanket for the duration of the procedure and anaesthesia maintained during surgery via a nose cone. The skin was cut along the line of the thighbone. The common sciatic nerve was exposed at the middle of the thigh by blunt dissection through biceps femoris. About 7 mm of nerve was freed proximal to the sciatic trifurcation, by inserting forceps under the nerve and the nerve gently lifted out of the thigh. Suture was pulled under the nerve using forceps and tied in a simple knot until slight resistance was felt and then double knotted. The procedure was repeated until 4 ligatures (4-0 silk) were tied loosely around the nerve with approx 1 mm spacing. The incision was closed in layers.
Animals were habituated to wire bottom test cages prior to the assessment of allodynia. Static allodynia was evaluated by application of von Frey hairs (Stoelting, Wood Dale, Ill., USA.) in ascending order of force (0.6, 1, 1.4, 2, 4, 6, 8, 10, 15 and 26 grams) to the plantar surface of hind paws. Each von Frey hair was applied to the paw for a maximum of 6 sec, or until a withdrawal response occurred. Once a withdrawal response to a von Frey hair was established, the paw was re-tested, starting with the filament below the one that produced a withdrawal, and subsequently with the remaining filaments in descending force sequence until no withdrawal occurred. The highest force of 26 g lifted the paw as well as eliciting a response, thus represented the cut off point. Each animal had both hind paws tested in this manner. The lowest amount of force required to elicit a response was recorded as paw withdrawal threshold (PWT) in grams. Static allodynia was defined as present if animals responded to a stimulus of, or less than, 4 g, which is innocuous in naive rats (Field M J, Bramwell S, Hughes J, Singh L. Detection of static and dynamic components of mechanical allodynia in rat models of neuropathic pain: are they signalled by distinct primary sensory neurones? Pain, 1999; 83:303-11).
(§3) All the experiments were conducted blind. Static allodynia was expressed as median [LQ; UQ] and analysed by Mann Whitney U test. Dynamic allodynia and thermal hyperalgesia were expressed as arithmetic mean±SEM and analysed by ANOVA.

[3] = tested on: Chronic Constriction Injury (CCI) rat model of neuropathic pain; assay: CCI-induced dynamic allodynia (cotton bud, PWL); format: in vivo
Procedure: as §1, §2
Dynamic allodynia was assessed by lightly stroking the plantar surface of the hind paw with a cotton bud. To avoid recording general motor activity, care was taken to perform this procedure in fully habituated rats that were not active. At least two measurements were taken at each time point, the mean of which represented the paw withdrawal latency (PWL). […] A pain withdrawal response was often accompanied with repeated flinching or licking of the paw. Dynamic allodynia was considered to be present if animals responded to the cotton stimulus within 8 sec of commencing stroking (Field et al, 1999).
as §3

[4] = tested on: Carrageenan-induced thermal hyperalgesia (CITH) in the rat; assay: Carrageenan-induced thermal hyperalgesia (CITH), rat plantar test; format: in vivo; settings: 25 mg/kg PO
Procedure: as §1
Thermal hyperalgesia was assessed using the rat plantar test (Ugo Basile, Comerio, Italy), according to a method modified by Hargreaves et al. (1988). Briefly, rats were habituated to the apparatus that consisted of three individual Perspex boxes on a glass table. A mobile radiant heat source was located under the table and focused onto the desired paw. Paw withdrawal latencies (PWLs) were recorded three times for both hind paws of each animal, the mean of which represented baseline for left and right hind paws. The apparatus was calibrated to give a PWL of approximately 10 s in naïve rats. To prevent tissue damage of the plantar zone, a 22.5 sec cut-off was observed. Lambda carrageenan was injected intraplantarly (100 μl, 20 mg/ml) the right hind paw and baseline recordings of PWT were taken 2 hr post administration.
as §3

[5] = 25 mg/kg PO (MED), post administration
[6] = 12.5, 25 and 50 mg/kg PO, from 14 days post surgery
[7] = highest dose (50 mg/kg PO) vs gabapentin 100 mg/kg PO
[8] = highest dose (50 mg/kg PO), post dose, p<0.01 vs vehicle

Compound: CC(=O)N(C1CC1)C1CC(C)N(C(=O)c2cccnc2)c2ccccc21 (stereo not drawn) [N-cyclopropyl-N-[2-methyl-1-(pyridine-3-carbonyl)-1,2,3,4-tetrahydro-quinolin-4-yl]-acetamide]
- blood brain barrier penetration [1]: appears to cross the blood brain barrier
- IC50 (CRTH2 receptor): 45 nM
- time of peak effect, static allodynia [2, 5]: 1 h
- effect on maintenance of CCI-induced static allodynia [2, 6]: reversed the maintenance of CCI-induced static and dynamic allodynia in a dose dependent manner
- MED, static allodynia ([2]; PO): 25 mg/kg
- static allodynia reversal relative to gabapentin [2, 7]: curve profile comparable to gabapentin
- onset of anti-allodynic effect, static allodynia [2, 8]: 30 min
- time of peak effect, dynamic allodynia [3, 5]: 1 h
- effect on maintenance of CCI-induced dynamic allodynia [3, 6]: reversed the maintenance of CCI-induced static and dynamic allodynia in a dose dependent manner
- MED, dynamic allodynia ([3]; PO): 25 mg/kg
- dynamic allodynia effect relative to gabapentin [3, 7]: less potent but significantly different from vehicle treated CCI rats
- dynamic allodynia paw withdrawal latency (mean±SEM) ([3]; highest dose (50 mg/kg PO), 2 hrs post administration, vehicle 3.5±0.7): 11.8±1.0
- onset of anti-allodynic effect, dynamic allodynia [3, 8]: 30 min
- effect in the contralateral paw [4]: no effect
- effect on maintenance of thermal hyperalgesia (ipsilateral paw) [4]: completely reversed
- paw withdrawal latency at peak effect (mean±SEM) ([4]; 2 h post administration, ipsilateral paw, vehicle 3.9±0.2): 10.1±0.6
- time of peak effect, thermal hyperalgesia ([4]; post administration): 2 h
- duration of anti-hyperalgesic effect ([4]; post compound administration): 5 h
